In ChEMBL document CHEMBL1127059, “Synthesis and antiviral activity of 5'-deoxypyrazofurin” (J Med Chem, 1993):
In brackets after ≈: the same amount, converted by molar mass.

Assays:
MDCK [1] = experiment: Tested for inhibitory effect on RNA virus Influenza B in MDCK cell line; assay type: functional, cell-based; details: Canis lupus familiaris
MDCK [2] = experiment: Tested for inhibitory effect on RNA virus Influenza A in MDCK cell line; assay type: functional, cell-based; details: Canis lupus familiaris
L1210 = assay type: functional, cell-based; details: Mus musculus
ESM [3] = assay type: functional, cell-based; details: Homo sapiens
Vero [4] = assay type: functional, cell-based; details: Chlorocebus sabaeus
ESM [5] = experiment: Tested for inhibitory effect on DNA virus TK-HSV-1(VMW 1837) in ESM cell line; assay type: functional, cell-based; details: Homo sapiens
HeLa [6] = experiment: Tested for inhibitory effect on RNA virus VSV in HeLa cell line; assay type: functional, cell-based; details: Homo sapiens
HEL [7] = experiment: Tested for inhibitory effect on DNA virus VZV (YS) in HEL cell line; assay type: functional, cell-based; details: Homo sapiens
HEL [8] = experiment: Tested for inhibitory effect on DNA virus TK-VZV (YS/R) in HEL cell line; assay type: functional, cell-based; details: Homo sapiens
MT4 [9] = experiment: Tested for inhibitory effect on RNA virus HIV-2 in MT-4 cell line; assay type: functional, cell-based; details: Homo sapiens
HEL [10] = experiment: Tested for inhibitory effect on DNA virus CMV (Davis) in HEL cell line; assay type: functional, cell-based; details: Homo sapiens
HEL [11] = assay type: functional, cell-based; details: Homo sapiens
ESM [12] = experiment: Tested for inhibitory effect on DNA virus TK-HSV-1 (B2006) in ESM cell line; assay type: functional, cell-based; details: Homo sapiens
HeLa [13] = experiment: Tested for inhibitory effect on RNA virus Polio-1 in HeLa cell line; assay type: functional, cell-based; details: Homo sapiens
MT4 [14] = experiment: Tested for inhibitory effect on RNA virus HIV-1 in MT-4 cell line; assay type: functional, cell-based; details: Homo sapiens
Vero [15] = experiment: Tested for inhibitory effect on RNA virus PV-3 in Vero cell line; assay type: functional, cell-based; details: Chlorocebus sabaeus
HEL [16] = experiment: Tested for inhibitory effect on DNA virus VZV (Oka) in HEL cell line; assay type: functional, cell-based; details: Homo sapiens
Vero [17] = experiment: Tested for inhibitory effect on RNA virus SV in Vero cell line; assay type: functional, cell-based; details: Chlorocebus sabaeus
HeLa [18] = experiment: Tested for inhibitory effect on RNA virus RSV in HeLa cell line; assay type: functional, cell-based; details: Homo sapiens
HEL [19] = experiment: Tested for inhibitory effect on DNA virus TK-VZV (07/1) in HEL cell line; assay type: functional, cell-based; details: Homo sapiens
Vero [20] = experiment: Tested for inhibitory effect on RNA virus Coxsackie B4 in Vero cell line; assay type: functional, cell-based; details: Chlorocebus sabaeus
MT4 [21] = experiment: cells; details: Homo sapiens
Vero [22] = experiment: Tested for inhibitory effect on RNA virus JV in Vero cell line; assay type: functional, cell-based; details: Chlorocebus sabaeus
ESM [23] = experiment: Tested for inhibitory effect on DNA virus HSV-2 (G) in ESM cell line; assay type: functional, cell-based; details: Homo sapiens
FM3A = assay type: functional, cell-based; details: Mus musculus
CCRF-CEM = assay type: functional, cell-based; details: Homo sapiens
HeLa [24] = assay type: functional, cell-based; details: Homo sapiens
HEL [25] = experiment: Tested for inhibitory effect on DNA virus CMV (AD-169) in HEL cell line; assay type: functional, cell-based; details: Homo sapiens
Vero [26] = experiment: Tested for inhibitory effect on RNA virus Reo-1 in Vero cell line; assay type: functional, cell-based; details: Chlorocebus sabaeus
ESM [27] = experiment: Tested for inhibitory effect on DNA virus VV in ESM cell line; assay type: functional, cell-based; details: Homo sapiens
Vero [28] = experiment: Tested for inhibitory effect on RNA virus TV in Vero cell line; assay type: functional, cell-based; details: Chlorocebus sabaeus
Vero [29] = experiment: Tested for inhibitory effect on RNA virus SFV in Vero cell line; assay type: functional, cell-based; details: Chlorocebus sabaeus
ESM [30] = experiment: Tested for inhibitory effect on DNA virus HSV-1(KOS) in ESM cell line; assay type: functional, cell-based; details: Homo sapiens
MDCK [31] = assay type: functional, cell-based; details: Canis lupus familiaris
Vero [32] = assay type: functional, cell-based; details: Chlorocebus sabaeus; remark: listed apart in the source

Compound	IC50 (MDCK [1]) [µg/mL]	IC50 (MDCK [2]) [µg/mL]	IC50 (L1210) [µg/mL]	IC50 (ESM [3]) [µg/mL]	IC50 (ESM [5]) [µg/mL]	IC50 (HeLa [6]) [µg/mL]	IC50 (MT4 [9]) [µg/mL]	IC50 (HEL [10]) [µg/mL]	IC50 (HEL [11]) [µg/mL]	IC50 (ESM [12]) [µg/mL]	IC50 (HeLa [13]) [µg/mL]	IC50 (MT4 [14]) [µg/mL]	IC50 (Vero [15]) [µg/mL]	IC50 (Vero [17]) [µg/mL]	IC50 (HeLa [18]) [µg/mL]	IC50 (Vero [20]) [µg/mL]	IC50 (MT4 [21]) [µg/mL]	IC50 (Vero [22]) [µg/mL]	IC50 (ESM [23]) [µg/mL]	IC50 (FM3A) [µg/mL]	further results
C[C@H]1OC(c2n[nH]c(C(N)=O)c2O)[C@H](O)[C@@H]1O (some centres undefined)	> 100	20 (≈ 82.2 µM)	37 (≈ 152 µM)	≥ 400	70 (≈ 288 µM)	14 (≈ 57.6 µM)	> 4	> 40	> 50	55 (≈ 226 µM)	55 (≈ 226 µM)	> 4	> 200	> 200	4 (≈ 16.4 µM)	70 (≈ 288 µM)	8.8 (≈ 36.2 µM)	> 40	> 300	39 (≈ 160 µM)	IC50 (Vero [4]): > 400 µg/mL; IC50 (HEL [7]): 22 µg/mL (≈ 90.5 µM); IC50 (HEL [8]): > 40 µg/mL; IC50 (HEL [16]): 40 µg/mL (≈ 164 µM); IC50 (HEL [19]): > 40 µg/mL; IC50 (CCRF-CEM): > 49 µg/mL; IC50 (HeLa [24]): ≥ 170 µg/mL; IC50 (HEL [25]): > 40 µg/mL; IC50 (Vero [26]): > 175 µg/mL; IC50 (ESM [27]): 5.5 µg/mL (≈ 22.6 µM); IC50 (Vero [28]): > 40 µg/mL; IC50 (Vero [29]): > 200 µg/mL; IC50 (ESM [30]): ≥ 350 µg/mL; IC50 (MDCK [31]): 100 µg/mL (≈ 411 µM)
Nc1nc2c(ncn2COCCO)c(=O)[nH]1 [ACYCLOVIR]								22 (≈ 97.7 µM)	> 200								> 100				
NC(=O)c1ncn([C@@H]2O[C@H](CO)[C@@H](O)[C@H]2O)n1 [RIBAVIRIN]	4 (≈ 16.4 µM)	4 (≈ 16.4 µM)	7.1 (≈ 29.1 µM)	≥ 400	110 (≈ 450 µM)	14 (≈ 57.3 µM)	> 5			> 135	70 (≈ 287 µM)	> 5	20 (≈ 81.9 µM)	≥ 250	4 (≈ 16.4 µM)	20 (≈ 81.9 µM)	6.5 (≈ 26.6 µM)	5.2 (≈ 21.3 µM)	> 300	3.9 (≈ 16 µM)	IC50 (Vero [32]): > 400 µg/mL; IC50 (CCRF-CEM): 19 µg/mL (≈ 77.8 µM); IC50 (HeLa [24]): ≥ 400 µg/mL; IC50 (Vero [26]): 160 µg/mL (≈ 655 µM); IC50 (ESM [27]): 45 µg/mL (≈ 184 µM); IC50 (Vero [28]): 6.4 µg/mL (≈ 26.2 µM); IC50 (Vero [29]): ≥ 235 µg/mL; IC50 (ESM [30]): ≥ 350 µg/mL; IC50 (MDCK [31]): > 200 µg/mL
